Results published in US8076338B2, “Kinase modulators and methods of use” (Exelixis, Inc., priority 2004, dated 2011).
Read-outs that look alike come from different tables or passages of the source.

How the values were obtained:
p70S6K = p70S6K (Homo sapiens, UniProt P23443); test: Luciferase-coupled chemiluminescence kinase assay (ATP consumption); type: biochemical
In short: (§1)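 Enzyme at 2.5-5 nM was preincubated 30 min at room temperature with compound in Tris pH 7.5, MgCl2, TX-100, DTT, then reacted with ATP for 3 h at ambient temperature. Remaining ATP was quantified by luciferase-luciferin chemiluminescence, with consumption kept at 25-60%; […].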

AktK = AktK (Homo sapiens, UniProt P31749); test: as above; type: biochemical; details: read-out: AKT-1 IC50
In short: as §1

Sequence of p70S6K (P23443 whole entry): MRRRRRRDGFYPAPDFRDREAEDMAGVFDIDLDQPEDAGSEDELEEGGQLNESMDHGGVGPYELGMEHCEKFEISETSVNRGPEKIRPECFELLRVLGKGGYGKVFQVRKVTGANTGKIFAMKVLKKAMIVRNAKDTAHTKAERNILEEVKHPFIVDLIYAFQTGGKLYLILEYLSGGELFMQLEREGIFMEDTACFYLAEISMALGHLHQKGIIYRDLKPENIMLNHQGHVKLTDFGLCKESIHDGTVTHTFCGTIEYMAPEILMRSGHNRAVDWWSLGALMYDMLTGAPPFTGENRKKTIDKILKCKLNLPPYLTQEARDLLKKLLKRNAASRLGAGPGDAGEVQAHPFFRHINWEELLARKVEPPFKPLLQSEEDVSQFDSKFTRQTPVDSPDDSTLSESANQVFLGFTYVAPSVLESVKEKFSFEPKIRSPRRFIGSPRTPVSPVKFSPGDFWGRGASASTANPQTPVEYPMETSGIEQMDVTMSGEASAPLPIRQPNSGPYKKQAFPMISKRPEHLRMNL
Sequence of AktK (P31749 whole entry): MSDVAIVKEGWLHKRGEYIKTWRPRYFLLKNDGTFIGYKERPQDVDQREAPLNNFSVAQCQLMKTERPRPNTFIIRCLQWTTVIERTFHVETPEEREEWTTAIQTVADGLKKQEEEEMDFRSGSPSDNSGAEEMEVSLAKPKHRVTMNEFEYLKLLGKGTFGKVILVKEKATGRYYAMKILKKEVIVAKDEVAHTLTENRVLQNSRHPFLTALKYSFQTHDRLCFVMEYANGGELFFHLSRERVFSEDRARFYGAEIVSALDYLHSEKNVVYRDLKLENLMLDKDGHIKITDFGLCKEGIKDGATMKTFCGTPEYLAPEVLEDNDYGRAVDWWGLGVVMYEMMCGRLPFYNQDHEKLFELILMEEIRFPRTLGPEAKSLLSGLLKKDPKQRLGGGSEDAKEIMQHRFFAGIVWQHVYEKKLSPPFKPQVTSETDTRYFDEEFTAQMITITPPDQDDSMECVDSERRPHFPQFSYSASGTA

Compound	IC50 (p70S6K) [nM]	IC50 (AktK) [nM]	IC50 (p70S6K; Table 1, class symbols per key) [nM]	IC50 (AktK; Table 1, class symbols per key) [nM]
Clc1ccc(N2CCN(c3ncnc4[nH]cnc34)CC2)cc1 [Entry 308, 6-[4-(4-chlorophenyl)piperazin-1-yl]-9H-purine]	1000 to 10000	≥ 10000	–	–
O=[N+]([O-])c1ccccc1N1CCN(c2ncnc3[nH]nc(Br)c23)CC1 [Entry 121, 3-bromo-4-[4-(2-nitrophenyl)piperazin-1-yl]-1H-pyrazolo[3,4-d]pyrimidine]	–	–	100 to 1000	≥ 10000
CCc1n[nH]c2ncnc(N3CCN(c4cc(Cl)cc(N(C)CCN(C)C)c4C)CC3)c12 [Entry 82, N-{5-chloro-3-[4-(3-ethyl-1H-pyrazolo[3,4-d]pyrimidin-4-yl)piperazin-1-yl]-2-methylphenyl}-N,N′,N′-trimethylethane-1,2-diamine]	–	–	< 100	1000 to 10000
Cc1c(NCCN2CCCC2)cc(CCc2ccccc2)cc1N1CCN(c2ncnc3[nH]nc(Br)c23)CC1 [Entry 247, 3-[4-(3-bromo-1H-pyrazolo[3,4-d]pyrimidin-4-yl)piperazin-1-yl]-2-methyl-5-(2-phenylethyl)-N-(2-pyrrolidin-1-ylethyl)aniline]	–	–	< 100	< 100
Cc1c(OCCN2CCN(C)CC2)cc(Cl)cc1N1CCN(c2ncnc3[nH]nc(Br)c23)CC1 [Entry 72, 3-bromo-4-[4-(5-chloro-2-methyl-3-{[2-(4-methylpiperazin-1-yl)ethyl]oxy}phenyl)piperazin-1-yl]-1H-pyrazolo[3,4-d]pyrimidine]	–	–	< 100	100 to 1000
Cc1c(CCCN2CCCC2)cc(F)cc1N1CCN(c2ncnc3[nH]nc(Br)c23)CC1 [Entry 60, 3-bromo-4-{4-[5-fluoro-2-methyl-3-(3-pyrrolidin-1-ylpropyl)phenyl]piperazin-1-yl}-1H-pyrazolo[3,4-d]pyrimidine]	–	–	< 100	100 to 1000
COC(CCC(F)(F)F)(OC)c1cc(NCCN2CCCC2)c(C)c(N2CCN(c3ncnc4[nH]nc(Br)c34)CC2)c1 [Entry 292, 3-[4-(3-bromo-1H-pyrazolo[3,4-d]pyrimidin-4-yl)piperazin-1-yl]-2-methyl-N-(2-pyrrolidin-1-ylethyl)-5-[4,4,4-trifluoro-1,1-bis(methyloxy)butyl]aniline]	< 100	< 100	–	–
COCCOc1cc(NCCN2CCCC2)c(C)c(N2CCN(c3ncnc4[nH]nc(Br)c34)CC2)c1 [Entry 223, 3-[4-(3-bromo-1H-pyrazolo[3,4-d]pyrimidin-4-yl)piperazin-1-yl]-2-methyl-5-{[2-(methyl-oxy)ethyl]oxy}-N-(2-pyrrolidin-1-ylethyl)aniline]	–	–	< 100	100 to 1000
Cc1c(OCCCN2CCCCC2)cc(Cl)cc1N1CCN(c2ncnc3[nH]nc(C(F)(F)F)c23)CC1 [Entry 69, 4-(4-{5-chloro-2-methyl-3-[(3-piperidin-1-ylpropyl)oxy]phenyl}piperazin-1-yl)-3-(trifluoromethyl)-1H-pyrazolo[3,4-d]pyrimidine]	–	–	< 100	100 to 1000
Cc1c(OCCN2CCCC2)cc(Cl)cc1N1CCN(c2ncnc3[nH]nc(C(C)C)c23)CC1 [Entry 137, 4-(4-{5-chloro-2-methyl-3-[(2-pyrrolidin-1-ylethyl)oxy]phenyl}piperazin-1-yl)-3-(1-methylethyl)-1H-pyrazolo[3,4-d]pyrimidine]	–	–	< 100	1000 to 10000
N#Cc1ccc(N2CCN(c3ncnc4[nH]nc(Br)c34)CC2)cc1 [Entry 123, 4-[4-(3-bromo-1H-pyrazolo[3,4-d]pyrimidin-4-yl)piperazin-1-yl]benzonitrile]	–	–	< 100	≥ 10000
4-[4-(5-chloro-2-methylphenyl)piperazin-1-yl]-1H-pyrazolo[3,4-d]pyrimidin-6-amine [Entry 156]	–	–	1000 to 10000	≥ 10000
Cc1nc(-c2cc(NCCN3CCCC3)c(C)c(N3CCN(c4ncnc5[nH]nc(Br)c45)CC3)c2)no1 [Entry 259, 3-[4-(3-bromo-1H-pyrazolo[3,4-d]pyrimidin-4-yl)piperazin-1-yl]-2-methyl-5-(5-methyl-1,2,4-oxadiazol-3-yl)-N-(2-pyrrolidin-1-ylethyl)aniline]	–	–	< 100	< 100
Cc1ccc(Cl)cc1N1CCN(c2ncnc3[nH]nc(CCC(=O)O)c23)CC1 [Entry 370, 3-{4-[4-(5-chloro-2-methylphenyl)piperazin-1-yl]-1H-pyrazolo[3,4-d]pyrimidin-3-yl}propanoic acid]	< 100	1000 to 10000	–	–
COc1ccccc1N1CCN(c2ncnc3[nH]ccc23)CC1 [Entry 302, 4-{4-[2-(methyloxy)phenyl]piperazin-1-yl}-7H-pyrrolo[2,3-d]pyrimidine]	100 to 1000	≥ 10000	–	–
CN(C)CCOc1nccnc1N1CCN(c2ncnc3[nH]nc(Br)c23)CC1 [Entry 119, 2-({3-[4-(3-bromo-1H-pyrazolo[3,4-d]pyrimidin-4-yl)piperazin-1-yl]pyrazin-2-yl}oxy)-N,N-dimethylethanamine]	–	–	100 to 1000	1000 to 10000

Compound	IC50 (p70S6K) [nM]	IC50 (AktK) [nM]	IC50 (p70S6K; Table 1, class symbols per key) [nM]	IC50 (AktK; Table 1, class symbols per key) [nM]
CCc1n[nH]c2ncnc(N3CCN(c4cc(OCc5ccccc5)cc(NCCN5CCCC5)c4C)CC3)c12 [Entry 174, 3-[4-(3-ethyl-1H-pyrazolo[3,4-d]pyrimidin-4-yl)piperazin-1-yl]-2-methyl-5-[(phenylmethyl)oxy]-N-(2-pyrrolidin-1-ylethyl)aniline]	–	–	< 100	100 to 1000
Cc1ccc(Cl)cc1N1CCN(c2ncnc3[nH]nc(Nc4ccccc4)c23)CC1 [Entry 332, 4-[4-(5-chloro-2-methylphenyl)piperazin-1-yl]-N-phenyl-1H-pyrazolo[3,4-d]pyrimidin-3-amine]	1000 to 10000	1000 to 10000	–	–
c1ccc(N2CCN(c3ncnc4[nH]ncc34)CC2)cc1 [Entry 297, 4-(4-phenylpiperazin-1-yl)-1H-pyrazolo[3,4-d]pyrimidine]	100 to 1000	≥ 10000	–	–
Cc1c(OCCC2CCN(C)CC2)cc(Cl)cc1N1CCN(c2ncnc3[nH]nc(Br)c23)CC1 [Entry 89, 3-bromo-4-[4-(5-chloro-2-methyl-3-{[2-(1-methyl-piperidin-4-yl)ethyl]oxy}phenyl)piperazin-1-yl]-1H-pyrazolo[3,4-d]pyrimidine]	–	–	< 100	< 100
CCc1n[nH]c2ncnc(N3CCN(c4cc(Cl)cc(OCCN5CCN(C)CC5)c4C)CC3)c12 [Entry 30, 4-[4-(5-chloro-2-methyl-3-{[2-(4-methylpiperazin-1-yl)ethyl]oxy}phenyl)piperazin-1-yl]-3-ethyl-1H-pyrazolo[3,4-d]pyrimidine]	–	–	< 100	100 to 1000
Cc1ccc(Cl)cc1N1CCN(c2ncnc3[nH]nc(C(F)(F)F)c23)CC1 [Entry 348, 4-[4-(5-chloro-2-methylphenyl)piperazin-1-yl]-3-(trifluoromethyl)-1H-pyrazolo[3,4-d]pyrimidine]	< 100	1000 to 10000	–	–
CCc1n[nH]c2ncnc(N3CCN(c4cc(Cl)cc(CN(C)C)c4OC)CC3)c12 [Entry 377, 1-[5-chloro-3-[4-(3-ethyl-1H-pyrazolo[3,4-d]pyrimidin-4-yl)piperazin-1-yl]-2-(methyloxy)phenyl]-N,N-dimethylmethanamine]	100 to 1000	≥ 10000	–	–
Cc1ccc(Cl)cc1N1CCN(c2nc(C(C)C)nc3[nH]ncc23)CC1 [Entry 326, 4-[4-(5-chloro-2-methylphenyl)piperazin-1-yl]-6-(1-methylethyl)-1H-pyrazolo[3,4-d]pyrimidine]	1000 to 10000	1000 to 10000	–	–
CCOc1ccc(N2CCN(c3ncnc4[nH]nc(Br)c34)CC2)cc1 [Entry 104, 3-bromo-4-{4-[4-(ethyloxy)phenyl]piperazin-1-yl}-1H-pyrazolo[3,4-d]pyrimidine]	–	–	100 to 1000	≥ 10000
Cc1ccc(C(=O)Nc2ccccc2)cc1N1CCN(c2ncnc3[nH]nc(Br)c23)CC1 [Entry 187, 3-[4-(3-bromo-1H-pyrazolo[3,4-d]pyrimidin-4-yl)piperazin-1-yl]-4-methyl-N-phenylbenzamide]	–	–	< 100	< 100
Cc1c(NCCN2CCCC2)cc(C(=O)Nc2cccnc2)cc1N1CCN(c2ncnc3[nH]nc(Br)c23)CC1 [Entry 215, [4-(3-bromo-1H-pyrazolo[3,4-d]pyrimidin-4-yl)piperazin-1-yl]-4-methyl-N-pyridin-3-yl-5-[(2-pyrrolidin-1-ylethyl)amino]benzamide]	–	–	< 100	< 100
Clc1ccc(-c2ccccc2OCCN2CCCC2)cc1N1CCN(c2ncnc3[nH]nc(Br)c23)CC1 [Entry 287, 3-bromo-4-(4-{4-chloro-2′-[(2-pyrrolidin-1-ylethyl)oxy]biphenyl-3-yl}piperazin-1-yl)-1H-pyrazolo[3,4-d]pyrimidine]	–	–	< 100	< 100
Cc1c(NCCN2CCCC2)cc(S(C)(=O)=O)cc1N1CCN(c2ncnc3[nH]nc(Br)c23)CC1 [Entry 261, 3-[4-(3-bromo-1H-pyrazolo[3,4-d]pyrimidin-4-yl)piperazin-1-yl]-2-methyl-5-(methylsulfonyl)-N-(2-pyrrolidin-1-ylethyl)aniline]	–	–	< 100	100 to 1000
Clc1ccc(Cl)c(N2CCN(c3ncnc4[nH]nc(Br)c34)CC2)c1 [Entry 95, 3-bromo-4-[4-(2,5-dichlorophenyl)piperazin-1-yl]-1H-pyrazolo[3,4-d]pyrimidine]	–	–	< 100	≥ 10000
Cc1ccc(Cl)cc1N1CCN(c2ncnc3[nH]nc(C4=CCNCC4)c23)CC1 [Entry 401, 4-[4-(5-chloro-2-methylphenyl)piperazin-1-yl]-3-(1,2,3,6-tetrahydropyridin-4-yl)-1H-pyrazolo[3,4-d]pyrimidine]	< 100	1000 to 10000	–	–
Cc1ccc(Cl)cc1N1CCN(c2ncnc3[nH]nc(-c4ccc(OCCN5CCOCC5)cc4)c23)CC1 [Entry 373, 4-[4-(5-chloro-2-methylphenyl)piperazin-1-yl]-3-{4-[(2-morpholin-4-ylethyl)oxy]phenyl}-1H-pyrazolo[3,4-d]pyrimidine]	1000 to 10000	1000 to 10000	–	–
